For data set [1], the system named is P19 stem cells. The data set is described as follows: Sulforhodamine B cell proliferation/survival assay, P19 stem cells. The class given is cell-based, mouse. The settings on record: for % Control (quantity of surviving cells as percentage of DMSO-only control): P19 stem cells, 20 μg/ml, 48 h exposure; for inhibition of P19 cell growth (in words): single dose of 20 μg/ml, 48 hours. The method, then:
FIG. 2 is a graph showing the results of dose-response studies comparing the effectiveness of extracts from four species of birch (B. papyrifera, B. kenaica, B. neoalaskana, and B. pendula) with betulinic acid (BetA) and betulin 3-caffeate (Bet3C). Concentrations of from 2.5 to 20 μg/ml were added to cultures of P19 stem cells for 48 h, and the numbers of surviving cells measured using sulforhodamine B assays.
(§1) Cell Proliferation Measurements: Sulforhodamine B assays (Skehan, P. et al. (1990). J. Natl. Cancer Inst. 82:1107-1112.) were conducted to measure the effects of compounds and extractives of interest on the proliferation of a number of different cell lines. Cell lines used include mouse P19 and human NT2-D1 stem cells, mouse K1735-M2 melanoma cells, human LNCaP and PC-3 prostate cancer cells, and human MCF-7 breast cancer cells. Other cell lines include normal human fibroblast BJ cells, human Caov-3 ovarian cancer cells, human U87 brain glioma cells, human HL-60 acute promyelocytic leukemia cells, human MOLT-4 acute lymphoblastic leukemia cells, human U937 histiocytic lymphoma cells, human MDA-MB-231 breast cancer cells, C2BBe1 cells (a clone of the human colorectal cell line Caco-2), human K562 chronic myeloid leukemia cells, human WM32-11 primary melanoma cells with radial growth phase-like phenotype (early primary melanoma), and human WM793 melanoma cells with vertical growth phase-like phenotype. Cells were seeded at a concentration of 2.5×10^4 cells/ml in 24-well plates, and allowed to recover for 2 days prior to drug addition. Test compounds were prepared in most instances as stock solutions in dimethylsulfoxide (DMSO). Compounds were then added to multiwell plates at final concentrations of […]. Control wells received an equivalent amount of vehicle (DMSO) only. After 1-3 days of incubation, the culture medium was decanted from each plate, and the cells fixed with cold (−10° C.) absolute methanol containing 1% acetic acid for at least 30 minutes. Subsequently, the methanol was decanted, and the plate air-dried. Sulforhodamine B (0.5% in 1% acetic acid) was added to each well, and the plate incubated at 35° C. for 1 hour. Plates were rinsed with 1% acetic acid, air-dried, and the bound dye eluted with 1 ml of 10 mM Tris buffer, pH 10. The absorbance was measured in a spectrophotometer at 540 nm; the amount of dye released is proportional to the number of cells present in the dish, and is a reliable indicator of cell proliferation.
A single dose of 20 μg/ml of either extract, pure compound, or a mixture of compounds, was added to cultures of P19 stem cells, and the growth of the cells measured after 48 hours of treatment (FIG. 1).
(§2) Stock solutions of compounds and extracts were diluted to 2 mg/ml in dimethylsulfoxide (DMSO), and subsequently added to samples at a final concentration of 20 μg/ml (10 μl/ml of a 2 mg/ml stock solution); controls received an equivalent amount of DMSO only (10 μl/ml). After 48 h, samples were fixed with methanol-acetic acid, and the quantity of surviving cells determined by sulforhodamine B staining methods (discussed above). The quantity of surviving cells is expressed as a percentage of the control (DMSO-only) cultures, which was set to 100%. […] Extracts and betulinic acid induce a relatively modest increase in the numbers of dead cells present the cultures (about 10-40%).

The test system of data set [2] is K1735-M2 melanoma cells. The experiment in a line: Sulforhodamine B cell proliferation assay, K1735-M2 melanoma cells. Format: cell-based, mouse. The settings on record: 2.5-10 mg/ml, 48 h. The method, then:
(§3) FIG. 3 is a bar graph showing a comparison of the effects of betulin 3-caffeate on other types of malignant cancer cell lines. P19 stem cells, K1735-M2 melanoma cells and MCF-7 breast cancer cells were treated with […] betulinic acid or betulin-3-caffeate for 48 h and cell quantity determined by sulforhodamine B assays.
as §1, with “After 1-3 days of incubation, the culture medium was decanted from each plate, and the cells fixed with cold (−10° C.) absolute methanol containing 1% acetic acid for at least 30 minutes. Subsequently, the methanol was decanted, and the plate air-dried. Sulforhodamine B (0.5% in 1% acetic acid) was added to each well, and the plate incubated at 35° C. for 1 hour. Plates were rinsed with 1% acetic acid, air-dried, and the bound dye eluted with 1 ml of 10 mM Tris buffer, pH 10.” left out

Data set [3] can be described thus: Light absorption analysis by UV-VIS spectrophotometer. The note with it: for Light absorption range (λ, nm): UV-VIS spectrophotometer. The class given is physicochemical. The source says: Sunscreens block the cutaneous absorption of UV radiation at 280-315 nm.
Data set [4] concerns MCF-7 breast cancer cells. The experiment in a line: Sulforhodamine B cell proliferation assay, MCF-7 breast cancer cells. The settings on record: 2.5-10 mg/ml, 48 h. Format: cell-based, human. The method, then: as §3
as §1, with “After 1-3 days of incubation, the culture medium was decanted from each plate, and the cells fixed with cold (−10° C.) absolute methanol containing 1% acetic acid for at least 30 minutes. Subsequently, the methanol was decanted, and the plate air-dried. Sulforhodamine B (0.5% in 1% acetic acid) was added to each well, and the plate incubated at 35° C. for 1 hour. Plates were rinsed with 1% acetic acid, air-dried, and the bound dye eluted with 1 ml of 10 mM Tris buffer, pH 10.” left out

Data set [5] concerns P19 cells. The data set is described as follows: P19 cell death by propidium iodide labeling with flow cytometry. Format: cell-based, mouse. The note with it: 48 hours.
From the text: FIG. 4 is a bar graph showing measurements of P19 cell death induced by extracts, betulinic acid (BetA) and betulin 3-caffeate (Bet3C). Because the reduction in cell numbers detected by sulforhodamine B assays could result from either an inhibition of cell proliferation or an induction of cell death (or a combination of both), propidium iodide labeling was used in conjunction with flow cytometry to detect dead and dying cells with compromised plasma membranes.
as §2
On the technique in general: A flow cytometer gives signals particle by particle.

Entries after “also recorded” stand apart in the source; their conditions may differ.

Turning to `O=C(O)CCCCCCC/C=C\CCCCCCCCO` [Sample 13, Cis-18-hydroxyoctadec-9-enoic acid], in data set [1], the “% Control (quantity of surviving cells as percentage of DMSO-only control)” value is on record as 65.9%.
As to `C=C(C)[C@@H]1CC[C@]2(CO)CC[C@]3(C)[C@H](CC[C@@H]4[C@@]5(C)CC[C@H](OC(=O)/C=C/c6ccc(O)c(O)c6)C(C)(C)[C@@H]5CC[C@]43C)[C@@H]12` [betulin-3-caffeate, (3β)-3-Caffeyloxylup-20(29)-en-28-ol], in data set [1] (2.5 to 20 μg/ml, 48 h), the “inhibition of P19 stem cell growth in dose response studies (in words)” value is “more effectively inhibits P19 stem cell growth”. For the same compound, the “% Control (quantity of surviving cells as percentage of DMSO-only control)” value in data set [1] came out at 1.2%. For the same compound, the “potency in inhibiting growth of P19 cells relative to betulinic acid” value in data set [1] (concentrations of 5-10 μg/ml, 48 h) lay within 4 to 5 fold. Also, the “inhibition of P19 cell growth (in words)” value in data set [1] was “even more profoundly inhibited cell growth”; in data set [1] (listed as betulin 3-caffeate), “among the most active compounds in inhibiting cell proliferation”. In data set [2], the “inhibition of M2 melanoma cell growth (in words)” value is reported as “significantly inhibited”. Also, the “effectiveness in inhibiting cell growth compared with betulinic acid (in words)” value in data set [2] (K1735-M2 melanoma cells) and in data set [4] (MCF-7 cells) was “more effective in inhibiting cell growth than betulinic acid” throughout. Also, the “Light absorption range (λ, nm)” value in data set [3] is 210-360 nm. For the same compound, the “ε (molar extinction coefficient)” value in data set [3] (at λmax 220) is listed as 2280; in data set [3] (at λmax 245), 1795; in data set [3] (at λmax 305), 2575; in data set [3] (at λmax 325), 2865. Also, in data set [4], the “inhibition of MCF-7 breast cancer cell growth (in words)” value is given as “do not appear to be as sensitive”. For the same compound, the “increase in the quantity of dead cells present in the cultures” value in data set [5] was roughly 200%.
As for `O=C(O)CCCCCCCCCCCCCCCCCCCCC(=O)O` [Sample 9, Docosandioic acid], the “% Control (quantity of surviving cells as percentage of DMSO-only control)” value in data set [1] is listed as 61.5%.
For `C=C(C)[C@@H]1CC[C@]2(C)CC[C@]3(C)[C@H](CC[C@@H]4[C@@]5(C)CC[C@H](O)C(C)(C)[C@@H]5CC[C@]43C)[C@@H]12` [Sample 16, Lupeol], in data set [1], the “% Control (quantity of surviving cells as percentage of DMSO-only control)” value worked out at 58.9% and the “inhibition of P19 cell growth (in words)” value was “less effective”.
As to “Treo-hydroxyoctadecanoic acid [Sample 11]”, the “% Control (quantity of surviving cells as percentage of DMSO-only control)” value in data set [1] was 67.3%.
In the case of betulin 3,28,30-tricaffeate, in data set [3], the “Light absorption range (λ, nm)” value was 210-360 nm. In addition, the “ε (molar extinction coefficient)” value was determined as 1230 in data set [3] (at λmax 220), 882 in data set [3] (at λmax 245), 1174 in data set [3] (at λmax 305) and 1353 in data set [3] (at λmax 325).
As for `O=C(O)CCCCCCCCCCCCCCCCCCCCCO` [Sample 12, 22-hydroxydocosanoic acid], the “% Control (quantity of surviving cells as percentage of DMSO-only control)” value in data set [1] is recorded as 51.4%.
Regarding `CC1(C)CC[C@]2(C(=O)O)CC[C@]3(C)C(=CC[C@@H]4[C@@]5(C)CC[C@H](O)C(C)(C)[C@@H]5CC[C@]43C)[C@@H]2C1` [Sample 15, Oleanolic acid], in data set [1], the “% Control (quantity of surviving cells as percentage of DMSO-only control)” value was found to be 22.3% and the “inhibition of P19 cell growth (in words)” value is listed as “less effective”.
On to Hydroxyoctadecanoic acid [Sample 10], for which, in data set [1], the “% Control (quantity of surviving cells as percentage of DMSO-only control)” value amounted to 82.6%.
Regarding `C=C(C)[C@@H]1CC[C@]2(C(=O)O)CC[C@]3(C)C(CC[C@@H]4[C@@]5(C)CC[C@H](O)C(C)(C)C5CC[C@]43C)C12` (stereo partly drawn) [Sample 14, 3(β)-hydroxy-20(29)-lupaene-28-oic acid, reference compound], in data set [1], the “% Control (quantity of surviving cells as percentage of DMSO-only control)” value worked out at 1.3%. Further, the “inhibition of P19 cell growth (in words)” value in data set [1] (listed as betulinic acid) is “even more profoundly inhibited cell growth; also recorded: among the most active compounds in inhibiting cell proliferation”. Further, the “inhibition of M2 melanoma cell growth (in words)” value in data set [2] is “significantly inhibited”. The “inhibition of MCF-7 breast cancer cell growth (in words)” value in data set [4] was “do not appear to be as sensitive”. Further, the “increase in the quantity of dead cells present in the cultures” value in data set [5] was 10-40%.
Turning to `C=C(C)[C@@H]1CC[C@]2(COC(=O)/C=C/c3ccc(O)c(O)c3)CC[C@]3(C)[C@H](CC[C@@H]4[C@@]5(C)CC[C@H](OC(=O)/C=C/c6ccc(O)c(O)c6)C(C)(C)[C@@H]5CC[C@]43C)[C@@H]12` [betulin-3,28-dicaffeate], in data set [3], the “Light absorption range (λ, nm)” value is 200-350 nm. Further, the “ε (molar extinction coefficient)” value in data set [3] (at λmax 220) is reported as 13978; in data set [3] (at λmax 245), 10018; in data set [3] (at λmax 305), 13341; in data set [3] (at λmax 325), 15375.
`C=C(C)[C@@H]1CC[C@]2(CO)CC[C@]3(C)C(CC[C@@H]4[C@@]5(C)CC[C@H](O)C(C)(C)C5CC[C@]43C)C12` (stereo partly drawn) [Sample 17, 3β,28-dihydroxy-lup-20(29)-ene]: in data set [1], the “% Control (quantity of surviving cells as percentage of DMSO-only control)” value is listed as 14.8% and the “inhibition of P19 cell growth (in words)” value is on record as “less effective”.
For `C=C(C)[C@@H]1CC[C@]2(COC(=O)/C=C/c3ccc(O)c(O)c3)CC[C@]3(C)[C@H](CC[C@@H]4[C@@]5(C)CC[C@H](O)C(C)(C)[C@@H]5CC[C@]43C)[C@@H]12` [betulin-28-caffeate], in data set [3], the “Light absorption range (λ, nm)” value is reported as 210-360 nm. Further, the “ε (molar extinction coefficient)” value in data set [3] (at λmax 220) is 1300; in data set [3] (at λmax 245), 875; in data set [3] (at λmax 305), 1190; in data set [3] (at λmax 325), 1380.

(Values after patent publication US20090136566A1, “THERAPEUTIC TRITERPENOIDS” (Regents of the University of Minnesota, priority 2006, published 2009).)
